The results in this text go back to patent publication US7411083B2, “Substituted acetic acid derivatives” (Wyeth, priority 2003, dated 2008).

Molecules are shown by their SMILES.

One may read the inhibition as the change of the read-out against control, counted positive when it falls.

The target of the test is T1, recombinant human plasminogen activator inhibitor-1 (PAI-1) (Homo sapiens, UniProt P05121).
T1 construct: purchased Molecular Innovations, Royal Oak, Mich
T1 sequence (P05121 24-402): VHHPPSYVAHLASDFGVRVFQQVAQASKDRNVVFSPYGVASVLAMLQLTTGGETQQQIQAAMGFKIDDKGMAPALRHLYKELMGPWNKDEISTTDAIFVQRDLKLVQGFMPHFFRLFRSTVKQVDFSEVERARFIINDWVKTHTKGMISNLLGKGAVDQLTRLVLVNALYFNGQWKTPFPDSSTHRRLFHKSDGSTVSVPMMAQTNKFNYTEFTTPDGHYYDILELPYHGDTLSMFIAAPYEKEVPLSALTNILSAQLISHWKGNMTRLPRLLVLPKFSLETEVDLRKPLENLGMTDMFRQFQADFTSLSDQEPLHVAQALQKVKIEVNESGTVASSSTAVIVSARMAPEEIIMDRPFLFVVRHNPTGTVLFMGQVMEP
Briefly: Screening for PAI-1 inhibition (residual tPA activity, Spectrozyme-tPA chromogenic substrate). Format: biochemical. The conditions noted are these: test compound at 100 Um; pH 6.6 buffer, 140 nM PAI-1, 70 nM tPA. As to the method: Screening for PAI-1 inhibition. Test compounds are dissolved in DMSO at a final concentration of 10 Mm, then diluted 100× in physiologic buffer. The inhibitory assay is initiated by the addition of the test compound (1-100 μM final concentration, maximum DMSO concentration of 0.2%) in a Ph 6.6 buffer containing 140 Nm recombinant human plasminogen activator inhibitor-1 (PAI-1; Molecular Innovations, Royal Oak, Mich.). Following a 1 hour incubation at room temperature, 70 Nm of recombinant human tissue plasminogen activator (Tpa) is added, and the combination of the test compound, PAI-1 and Tpa is incubated for an additional 30 minutes. Following the second incubation, Spectrozyme-Tpa (American Diagnostica, Greenwich, Conn.), a chromogenic substrate for Tpa, is added and absorbance read at 405 nm at 0 and 60 minutes. Relative PAI-1 inhibition is equal to the residual Tpa activity in the presence of the test compounds and PAI-1. Control treatments include the complete inhibition of Tpa by PAI-1 at the molar ratio employed (2:1), and the absence of any effect of the test compound on Tpa alone.
`C#CCn1cc(/C=N/OCC(=O)O)c2cc(OCc3cccc(Br)c3)ccc21` [Compound 36, [({(1E)-[5-[(3-bromobenzyl)oxy]-1-(2-propynyl)-1H-indol-3-yl]methylidene}amino)oxy]acetic acid]: the inhibition at 100 µM came out at 92%. For the compound `Cn1cc(/C=N/OCC(=O)O)c2cc(OCc3cccc(Br)c3)ccc21` [Compound 37, {[((1E)-{5-[(3-bromobenzyl)oxy]-1-methyl-1H-indol-3-yl}methylidene)amino]oxy}acetic acid], the inhibition at 100 µM came to 70%. Take `C#CCn1cc(/C=N/OCC(=O)O)c2cc(OCc3cccc(Cl)c3)ccc21` [Compound 38, [({(1E)-[5-[(3-chlorobenzyl)oxy]-1-(2-propynyl)-1H-indol-3-yl]methylidene}amino)oxy]acetic acid]: the inhibition at 100 µM was determined as 62%. Under `Cn1cc(/C=N/OCC(=O)O)c2cc(OCc3cccc(Cl)c3)ccc21` [Compound 39, {[((1E)-{5-[(3-chlorobenzyl)oxy]-1-methyl-1H-indol-3-yl}methylidene)amino]oxy}acetic acid] stands 48%; under `C=CCn1cc(/C=N/OCC(=O)O)c2cc(OCc3ccccc3)ccc21` [Compound 40, [({(1E)-[1-allyl-5-(benzyloxy)-1H-indol-3-yl]methylidene}amino)oxy]acetic acid], 50%. For `O=C(O)CO/N=C/c1cn(Cc2ccccc2)c2ccc(OCc3ccccc3)cc12` [Compound 41, [({(1E)-[1-benzyl-5-(benzyloxy)-1H-indol-3-yl]methylidene}amino)oxy]acetic acid] the value was 96%; for `C#CCn1cc(/C=N/OCC(=O)O)c2cc(OCc3cccc(C(F)(F)F)c3)ccc21` [Compound 42, ({[(1E)-(1-(2-propynyl)-5-{[3-(trifluoromethyl)benzyl]oxy}-1H-indol-3-yl)methylidene]amino}oxy)acetic acid], 96%; for `Cn1cc(/C=N/OCC(=O)O)c2cc(OCc3cccc(C(F)(F)F)c3)ccc21` [Compound 43, ({[(1E)-(1-methyl-5-{[3-(trifluoromethyl)benzyl]oxy}-1H-indol-3-yl)methylidene]amino}oxy)acetic acid], 81%. Under `C#CCn1cc(/C=N/OCC(=O)O)c2cc(OCc3ccc(Cl)cc3)ccc21` [Compound 44, [({(1E)-[5-[(4-chlorobenzyl)oxy]-1-(2-propynyl)-1H-indol-3-yl]methylidene}amino)oxy]acetic acid] stands 83%; under `C=CCn1cc(/C=N/OCC(=O)O)c2cc(OCc3ccc(Cl)cc3)ccc21` [Compound 45, {[((1E)-{1-allyl-5-[(4-chlorobenzyl)oxy]-1H-indol-3-yl}methylidene)amino]oxy}acetic acid], 96%; under `O=C(O)CO/N=C/c1cn(Cc2ccccc2)c2ccc(OCc3ccc(Cl)cc3)cc12` [Compound 46, {[((1E)-{1-benzyl-5-[(4-chlorobenzyl)oxy]-1H-indol-3-yl}methylidene)amino]oxy}acetic acid], 86%. Regarding `Cn1cc(/C=N/OCC(=O)O)c2cc(OCc3ccc(Cl)cc3)ccc21` [Compound 47, {[((1E)-{5-[(4-chlorobenzyl)oxy]-1-methyl-1H-indol-3-yl}methylidene)amino]oxy}acetic acid], the inhibition at 100 µM was found to be 31%. In the case of `C#CCn1cc(/C=N/OCC(=O)O)c2cc(OCc3ccccc3Cl)ccc21` [Compound 48, [({(1E)-[5-[(2-chlorobenzyl)oxy]-1-(2-propynyl)-1H-indol-3-yl]methylidene}amino)oxy]acetic acid], the inhibition at 100 µM came to 79%. For `C=CCn1cc(/C=N/OCC(=O)O)c2cc(OCc3ccccc3Cl)ccc21` [Compound 49, {[((1E)-{1-allyl-5-[(2-chlorobenzyl)oxy]-1H-indol-3-yl}methylidene)amino]oxy}acetic acid] the value was 93%. For `Cn1cc(/C=N/OCC(=O)O)c2cc(OCc3ccccc3Cl)ccc21` [Compound 50, {[((1E)-{5-[(2-chlorobenzyl)oxy]-1-methyl-1H-indol-3-yl}methylidene)amino]oxy}acetic acid] the value was 31%; for `C#CCn1cc(/C=N/OCC(=O)O)c2cc(OCc3ccc(Cl)c(Cl)c3)ccc21` [Compound 51, [({(1E)-[5-[(3,4-dichlorobenzyl)oxy]-1-(2-propynyl)-1H-indol-3-yl]methylidene}amino)oxy]acetic acid], 86%.

`C=CCn1cc(/C=N/OCC(=O)O)c2cc(OCc3ccc(Cl)c(Cl)c3)ccc21` [Compound 52, {[((1E)-{1-allyl-5-[(3,4-dichlorobenzyl)oxy]-1H-indol-3-yl}methylidene)amino]oxy}acetic acid]: the inhibition at 100 µM was found to be 72%. Under `O=C(O)CO/N=C/c1cn(Cc2ccccc2)c2ccc(OCc3ccc(Cl)c(Cl)c3)cc12` [Compound 53, {[((1E)-{1-benzyl-5-[(3,4-dichlorobenzyl)oxy]-1H-indol-3-yl}methylidene)amino]oxy}acetic acid] stands 76%; under `Cn1cc(/C=N/OCC(=O)O)c2cc(OCc3ccc(Cl)c(Cl)c3)ccc21` [Compound 54, {[((1E)-{5-[(3,4-dichlorobenzyl)oxy]-1-methyl-1H-indol-3-yl}methylidene)amino]oxy}acetic acid], 91%; under `C=CCn1cc(/C=N/OCC(=O)O)c2cc(OCc3ccc4ccccc4c3)ccc21` [Compound 55, [({(1E)-[1-allyl-5-(2-naphthylmethoxy)-1H-indol-3-yl]methylidene}amino)oxy]acetic acid], 81%. Under `O=C(O)CO/N=C/c1cn(Cc2ccccc2)c2ccc(OCc3ccc4ccccc4c3)cc12` [Compound 56, [({(1E)-[1-benzyl-5-(2-naphthylmethoxy)-1H-indol-3-yl]methylidene}amino)oxy]acetic acid] stands 62%; under `Cn1cc(/C=N/OCC(=O)O)c2cc(OCc3ccc4ccccc4c3)ccc21` [Compound 57, [({(1E)-[1-methyl-5-(2-naphthylmethoxy)-1H-indol-3-yl]methylidene}amino)oxy]acetic acid], 64%; under `O=C(O)CO/N=C/c1cccc(-c2cccc(OCc3ccc(C(F)(F)F)cc3)c2)c1` [Compound 58, ({[(1E)-(3′-{[4-(trifluoromethyl)benzyl]oxy}-1,1′-biphenyl-3-yl)methylidene]amino}oxy)acetic acid], 84%.

As for `CC(C)(C)c1ccc(COc2cccc(-c3cccc(/C=N/OCC(=O)O)c3)c2)cc1` [Compound 59, {[((1E)-{3′-[(4-tert-butylbenzyl)oxy]-1,1′-biphenyl-3-yl}methylidene)amino]oxy}acetic acid], the inhibition at 100 µM came out at 63%. As to `O=C(O)CO/N=C/c1cccc(-c2cccc(OCc3ccc(Br)cc3)c2)c1` [Compound 60, {[((1E)-{3′-[(4-bromobenzyl)oxy]-1,1′-biphenyl-3-yl}methylidene)amino]oxy}acetic acid], the inhibition at 100 µM was 88%.

Consider `O=C(O)CO/N=C/c1cccc(-c2cccc(OCc3cc(C(F)(F)F)cc(C(F)(F)F)c3)c2)c1` [Compound 61, ({[(1E)-(3′-{[3,5-bis(trifluoromethyl)benzyl]oxy}-1,1′-biphenyl-3-yl)methylidene]amino}oxy)acetic acid], for which the inhibition at 100 µM came to 74%. For `O=C(O)CO/N=C/c1cccc(-c2cccc(OCc3cccc(Br)c3)c2)c1` [Compound 62, {[((1E)-{3′-[(3-bromobenzyl)oxy]-1,1′-biphenyl-3-yl}methylidene)amino]oxy}acetic acid] the value was 84%; for `O=C(O)CO/N=C/c1cccc(-c2cccc(OCc3cccc(Cl)c3)c2)c1` [Compound 63, {[((1E)-{3′-[(3-chlorobenzyl)oxy]-1,1′-biphenyl-3-yl}methylidene)amino]oxy}acetic acid], 91%.

For the compound `O=C(O)CO/N=C/c1cccc(-c2cccc(OCc3ccccc3)c2)c1` [Compound 64, [({(1E)-[3′-(benzyloxy)-1,1′-biphenyl-3-yl]methylidene}amino)oxy]acetic acid], the inhibition at 100 µM is 92%. In the case of `O=C(O)CO/N=C/c1cccc(-c2cccc(OCc3cccc(C(F)(F)F)c3)c2)c1` [Compound 65, ({[(1E)-(3′-{[3-(trifluoromethyl)benzyl]oxy}-1,1′-biphenyl-3-yl)methylidene]amino}oxy)acetic acid], the inhibition at 100 µM came to 84%. Under `O=C(O)CO/N=C/c1cccc(-c2cccc(OCc3ccc(Cl)cc3)c2)c1` [Compound 66, {[((1E)-{3′-[(4-chlorobenzyl)oxy]-1,1′-biphenyl-3-yl}methylidene)amino]oxy}acetic acid] stands 84%; under `O=C(O)CO/N=C/c1cccc(-c2cccc(OCc3ccccc3Cl)c2)c1` [Compound 67, {[((1E)-{3′-[(2-chlorobenzyl)oxy]-1,1′-biphenyl-3-yl}methylidene)amino]oxy}acetic acid], 87%; under `O=C(O)CO/N=C/c1cccc(-c2cccc(OCc3ccc(Cl)c(Cl)c3)c2)c1` [Compound 68, {[((1E)-{3′-[(3,4-dichlorobenzyl)oxy]-1,1′-biphenyl-3-yl}methylidene)amino]oxy}acetic acid], 83%.
